Test results reported in patent US8507545B2, “Cytotoxic T cell activator comprising EP4 agonist” (National University Corporation, Hamamatsu University …, priority 2007, dated 2013).

What was measured:
TRP-2-specific CTLs [1] = experiment: Activation of cytotoxic T cells in cervical lymph nodes after tape stripping (TRP-2 tetramer flow cytometry); type: in vivo, C57BL/6(B6) mice; conditions: relative to total mononucleocytes as 100
Protocol: (§1) The corneal layers of the auricles of C57BL/6(B6) mice were destroyed by repeating a stripping procedure using an adhesive tape in 10 cycles, and an antigen peptide or EP4 agonist was applied as a test substance. The antigen peptide used was a melanoma-specific antigen peptide (Accord K.K. Peptide Business Department; hereinafter abbreviated TRP-2) in solution in 70% ethanol; 10 μg was applied to one side of each auricle. The EP4 agonist used was 11α,15α,-dihydroxy-9-oxo-16-(3-methoxymethylphenyl)-17,18,19,20-tetranol-3,7-dithiaprost-13E-enoic acid (hereinafter abbreviated Compound A-(1)) in solution in a mixed solvent of acetone:olive oil=10:1; 20 μL of 100 μM solution was applied to one side of each auricle. One week after application of the test substance, the cervical lymph nodes were removed. The frequency of TRP-2-specific CTLs was determined relative to the total number of mononucleocytes in the cervical lymph nodes as 100 by a flowcytometric analysis (FACScaliber; Becton, Dickinson and Company.) with a tetramer (Medical & Biological Laboratories Co., Ltd.). Four experimental groups were established: (1) a group undergoing tape stripping (hereinafter abbreviated TS) alone, (2) a group undergoing TS followed by application of TRP-2, (3) a group undergoing TS followed by application of Compound A-(1), and (4) a group undergoing TS followed by application of TRP-2 and Compound A-(1).
Note that the melanoma-specific antigen peptide TRP-2 was synthesized on the basis of a partial sequence described in the aforementioned Non-patent Document 1 (SEQ ID NO. 1) (Accord K.K. Peptide Business Department).
The same procedures as Example 1(1) were followed except that the EP4 agonists used were 4-[(2-{(2R)-2-[(1E,3S)-4-(4-fluorophenyl)-3-hydroxybut-1-enyl]-5-oxopyrrolidin-1-yl}ethyl)sulfanyl]butanoic acid (hereinafter abbreviated Compound L-(1)) and 4-{[2-((1R,2R,3R)-3-hydroxy-2-{(1E,3S)-3-hydroxy-4-[3-(methoxymethyl)phenyl]but-1-enyl}-5-oxocyclopentyl)ethyl]sulfanyl}butanoic acid (hereinafter abbreviated Compound M-(1)); the action of each compound to activate cytotoxic T cells was evaluated. Four experimental groups were established: (1) a group undergoing TS alone, (2) a group undergoing TS followed by application of TRP-2, (3) a group undergoing TS followed by application of TRP-2 and Compound L-(1), and (4) a group undergoing TS followed by application of TRP-2 and Compound M-(1).

HSVgpB-specific CTLs = experiment: Activation of cytotoxic T cells in cervical lymph nodes after tape stripping (HSVgpB pentamer flow cytometry); type: in vivo, C57BL/6(B6) mice; conditions: Example 1(3)
Protocol: as §1
The same procedures as Example 1(1) were followed except that the antigen peptide used was the herpes simplex virus-specific antigen HSV glycoprotein B (hereinafter abbreviated HSVgpB), and that a flowcytometric analysis with a pentamer (ProImmune Company) was performed, and the action of each compound to activate cytotoxic T cells was evaluated. Five experimental groups were established: (1) a group undergoing TS alone, (2) a group undergoing TS followed by application of HSVgpB, (3) a group undergoing TS followed by application of HSVgpB and Compound A-(1), (4) a group undergoing TS followed by application of HSVgpB and Compound L-(1), and (5) a group undergoing TS followed by application of HSVgpB and Compound M-(1).
Note that the herpes simplex virus-specific antigen peptide HSVgpB was synthesized on the basis of the partial sequence shown by SEQ ID NO. 2 (Virology, Vol. 195, pp. 62-70, (1993)) (ProImmune Company).

TRP-2-specific CTLs [2] = experiment: Activation of cytotoxic T cells in isolated Langerhans cells co-cultured with lymphocytes; type: cell-based, C57BL/6(B6) mouse
Protocol: A given area of an auricle epidermal sheet was removed from the corneal layer of one auricle of each C57BL/6(B6) mouse, and trypsinized to yield an epidermal cell suspension. The epidermal cell suspension obtained was subjected to panning using an antibody specific for I-A^b antigen to isolate epidermal Langerhans cells. After each test substance (TRP-2 (concentration; 10 μg/mL) and Compound A-(1) (1 μM)) was added to the Langerhans cells isolated (cell density; 10^5 cells per mL), the cells were cultured with a medium (cRPMI1640 medium; Sigma-Aldrich Japan). Half a day later, the cells were co-cultured with splenocytic lymphocytes isolated from […] for 7 days. Subsequently, by a flowcytometric analysis (FACScaliber; Becton, Dickinson and Company.) using a tetramer (Medical & Biological Laboratories Co., Ltd.), the frequency of TRP-2-specific CTLs was determined relative to the total number of mononucleocytes in the medium as 100. Three experimental groups were established: (1) a group with no treatment, (2) a group with the addition of TRP-2, and (3) a group with the addition of both TRP-2 and Compound A-(1).

B16 melanoma cells = experiment: Melanoma growth suppressing action; type: in vivo, B6 mouse; conditions: TS followed by application of TRP-2, experimental group (2)
Protocol: The corneal layer was removed from the right auricle of each B6 mouse by TS in the same manner as Example 1, and test substances (TRP-2 and Compound A-(1)) were applied there; 2 weeks later, the left auricle was treated in the same manner. The test substances applied to both ears were used in the same combination; TRP-2 was applied at 10 μg for one side of each auricle, and Compound A-(1) was applied at 20 μl, of 100 μM solution for one side of each auricle. Four days after the above-described treatment, each mouse received 2×10^5 B16 melanoma cells (RIKEN's Cell Bank) by subcutaneous transplantation, and examined for tumor growth. Experimental groups were established as in Example 1(1) (5 animals in each group).
Tumor diameter (mm), as an index of tumor growth, was measured in each group at various days after inoculation of B16 melanoma cells; the results are shown in FIG. 1.

[3] = Example 1(2), TS followed by application of TRP-2 and the EP4 agonist, cervical lymph nodes
[4] = TS followed by application of HSVgpB and the EP4 agonist

COCc1cccc(C[C@H](O)/C=C/[C@H]2[C@H](O)CC(=O)[C@@H]2CCSCCCC(=O)O)c1 [Compound M-(1), 4-{[2-((1R,2R,3R)-3-hydroxy-2-{(1E,3S)-3-hydroxy-4-[3-(methoxymethyl)phenyl]but-1-enyl}-5-oxocyclopentyl)ethyl]sulfanyl}butanoic acid]
Ratio of TRP-2-specific CTLs (TRP-2-specific CTLs [1]; [3]): 1.66
Ratio of HSVgpB-specific CTLs (HSVgpB-specific CTLs; [4]): 0.30

HSVgpB: herpes simplex virus-specific antigen peptide; Herpes Simplex Virus glycoprotein B 498-505 (SEQ ID NO. 2) (SSIEFARL; Herpes Simplex Virus glycoprotein B 498-505) [reference compound]
Ratio of HSVgpB-specific CTLs (HSVgpB-specific CTLs; TS followed by application of HSVgpB alone): 0.25

TRP-2: melanoma-specific antigen peptide; tyrosinase-related protein 2 181-188, partial sequence VYDFFVWL (SEQ ID NO. 1) (Tyrosinase-related protein 2 residues 181-188) [reference compound]
Ratio of TRP-2-specific CTLs (TRP-2-specific CTLs [1]; Example 1(1), TS followed by application of the test substance alone, cervical lymph nodes one week after application): 0.35
Ratio of TRP-2-specific CTLs (TRP-2-specific CTLs [1]; Example 1(2), TS followed by application of TRP-2 alone, cervical lymph nodes): 1.28
Ratio of TRP-2-specific CTLs (TRP-2-specific CTLs [2]; addition of TRP-2 (10 μg/mL) alone, 7 days co-culture, relative to total mononucleocytes in the medium as 100): 3.2
ratio of TRP-2-specific CTLs in B6 splenocytic lymphocytes (TRP-2-specific CTLs [2]; addition of TRP-2, experimental group (2)): increased
tumor growth suppressing action compared with an EP4 agonist alone (B16 melanoma cells): equivalent

O=C(O)CCCSCCN1C(=O)CC[C@@H]1/C=C/[C@@H](O)Cc1ccc(F)cc1 [Compound L-(1), 4-[(2-{(2R)-2-[(1E,3S)-4-(4-fluorophenyl)-3-hydroxybut-1-enyl]-5-oxopyrrolidin-1-yl}ethyl)sulfanyl]butanoic acid]
Ratio of TRP-2-specific CTLs (TRP-2-specific CTLs [1]; [3]): 1.92
Ratio of HSVgpB-specific CTLs (HSVgpB-specific CTLs; [4]): 0.29
